In patent US12077503B2, “Substituted cyclic amides and their use as herbicides” (FMC CORPORATION, priority 2015, dated 2024):

Tests used:
Format in all cases: in vivo
[1] = tested on: foxtail, giant (giant foxtail, Setaria faberii); assay: Test E postemergence; conditions: scale 0 to 100
Description: (§1) Seeds of plant species selected from corn (Zea mays), soybean (Glycine max), velvetleaf (Abutilon theophrasti), lambsquarters (Chenopodium album), poinsettia, wild (wild poinsettia, Euphorbia heterophylla), pigweed, palmer (palmer pigweed, Amaranthus palmeri), waterhemp (common waterhemp, Amaranthus rudis), surinam grass (Brachiaria decumbens), crabgrass, large (large crabgrass, Digitaria sangumnalis), crabgrass, Brazil (Brazilian crabgrass, Digitaria horizontalis), Panicum, fall (fall Panicum, Panicum dichotomiflorum), foxtail, giant (giant foxtail, Setaria faberii), foxtail, green (green foxtail, Setaria viridis), goosegrass (Eleusine indica), johnsongrass (Sorghum halepense), ragweed (common ragweed, Ambrosia elatior), barnyardgrass (Echinochloa crus-galli), sandbur (southern sandbur, Cenchrus echinatus), arrowleaf Sida (Sida rhombifolia), ryegrass, Italian (Italian ryegrass, Lolium multiflorum), dayflower, VA (Virginia dayflower, Commelina virginica), field bindweed (Convolvulus arvensis), morningglory (Ipomoea coccinea), nightshade (eastern black nightshade, Solanum ptycanthum), Kochia (Kochia scoparia), nutsedge, yellow (yellow nutsedge, Cyperus esculentus), horseweed (Conyza canadensis), and beggarticks (hairy beggarticks, Bidens pilosa), were planted into a silt loam soil and treated preemergence with test chemicals formulated in a non-phytotoxic solvent mixture which included a surfactant.
(§2) At the same time, plants selected from these crop and weed species were planted in pots containing Sunshine Redi-Earth planting medium comprising spaghnum peat moss, vermiculite, starter nutrients and dolomitic limestone and treated with postemergence applications of a test chemical formulated in the same manner. Plants ranged in height from 2 to 18 cm (1- to 4-leaf stage) for postemergence treatments. Treated plants and controls were maintained in a greenhouse for 14 to 21 d, after which time all species were compared to controls and visually evaluated. Plant response ratings, summarized in Table E, are based on a scale of 0 to 100 where 0 is no effect and 100 is complete control. A dash (-) response means no test result.

soybean (Glycine max) = assay: Test E postemergence; conditions: scale 0 to 100
Description: as §1, §2

corn (Zea mays) = assay: Test E postemergence; conditions: scale 0 to 100
Description: as §1, §2

[2] = tested on: crabgrass, large (large crabgrass, Digitaria sangumnalis); assay: Test E postemergence; conditions: scale 0 to 100
Description: as §1, §2

[3] = tested on: pigweed, palmer (palmer pigweed, Amaranthus palmeri); assay: Test E postemergence; conditions: scale 0 to 100
Description: as §1, §2

[4] = tested on: waterhemp (common waterhemp, Amaranthus rudis); assay: Test E postemergence; conditions: scale 0 to 100
Description: as §1, §2

[5] = tested on: transplanted rice seedlings (Oryza sativa cv. ‘Japonica—M202’); assay: Test F flooded paddy test; parameters: key: 0 = no effect, 100 = complete control; conditions: Flood
Description: (§3) Plant species in the flooded paddy test consisted of one stand of 9 or 10 water seeded rice seedlings (Rice, W. S. Jap, Oryza sativa cv. ‘Japonica—M202’ or Rice, W. S. Ind, ‘Indica’), and two stands of 3 or 4 transplanted rice seedlings (Oryza sativa cv. ‘Japonica—M202’), Monochoria (Monochoria vaginalis), sedge, umbrella (small-flower umbrella sedge, Cyperus difformis), hardstem bulrush (Scirpus juncoides), redstem (purple redstem, Ammannia coccinea), rice flatsedge (Cyperus iria), bearded sprangletop (Leptochloa fascicularis), barnyardgrass (Echinochloa crus-galli), waterplantain (common waterplantain, Alisma plantago-aquatica), and late watergrass (Echinochloa oryzicola) grown to the 2 to 2.5 leaf stage for testing. Potted plants were grown in a greenhouse with day/night temperature settings of 30/27° C., and supplemental balanced lighting was provided to maintain a 16-hour photoperiod. At time of treatment, test pots were flooded to 3 cm above the soil surface, treated by application of test compounds directly to the paddy water, and then maintained at that water depth for the duration of the test. Effects of treatments on rice and weeds were visually evaluated by comparison to untreated controls after 21 d. Plant response ratings, summarized in Table F, are based on a scale of 0 to 100 where 0 is no effect and 100 is complete control. A dash (-) response means no test result.

[6] = tested on: bearded sprangletop (Leptochloa fascicularis); assay: Test F flooded paddy test; parameters: key: 0 = no effect, 100 = complete control; conditions: Flood
Description: as §3

[7] = tested on: barnyardgrass (Echinochloa crus-galli); assay: Test F flooded paddy test; parameters: key: 0 = no effect, 100 = complete control; conditions: Flood
Description: as §3

[8] = tested on: Monochoria (Monochoria vaginalis); assay: Test F flooded paddy test; parameters: key: 0 = no effect, 100 = complete control; conditions: Flood
Description: as §3

[9] = tested on: water seeded rice seedlings (Rice, W. S. Jap, Oryza sativa cv. ‘Japonica—M202’); assay: Test F flooded paddy test; parameters: key: 0 = no effect, 100 = complete control; conditions: Flood
Description: as §3

[10] = tested on: late watergrass (Echinochloa oryzicola); assay: Test F flooded paddy test; parameters: key: 0 = no effect, 100 = complete control; conditions: Flood
Description: as §3

CN1C[C@H](c2ccc(C(F)(F)F)cc2)[C@@H](C(=O)Nc2cccc(F)c2F)C1=O [Compound 623, (3S,4S)—N-(2,3-difluorophenyl)-1-methyl-2-oxo-4-[4-(trifluoromethyl)phenyl]-3-pyrrolidinecarboxamide]
Plant response rating: Foxtail, Giant ([1]; 16 g ai/ha): 5
Plant response rating: Foxtail, Giant ([1]; 31 g ai/ha): 54
Plant response rating: Foxtail, Giant ([1]; 62 g ai/ha): 56
Plant response rating: Foxtail, Giant ([1]; 125 g ai/ha): 78
Plant response rating: Foxtail, Giant ([1]; 250 g ai/ha): 69
Plant response rating: Soybean (soybean (Glycine max); 16 g ai/ha): 0
Plant response rating: Soybean (soybean (Glycine max); 31 g ai/ha): 0
Plant response rating: Soybean (soybean (Glycine max); 62 g ai/ha): 20
Plant response rating: Soybean (soybean (Glycine max); 125 g ai/ha): 19
Plant response rating: Soybean (soybean (Glycine max); 250 g ai/ha): 35
Plant response rating: Corn (corn (Zea mays); 16 g ai/ha): 0
Plant response rating: Corn (corn (Zea mays); 31 g ai/ha): 0
Plant response rating: Corn (corn (Zea mays); 62 g ai/ha): 1
Plant response rating: Corn (corn (Zea mays); 125 g ai/ha): 1
Plant response rating: Corn (corn (Zea mays); 250 g ai/ha): 4
Plant response rating: Crabgrass, Large ([2]; 16 g ai/ha): 1
Plant response rating: Crabgrass, Large ([2]; 31 g ai/ha): 10
Plant response rating: Crabgrass, Large ([2]; 62 g ai/ha): 10
Plant response rating: Crabgrass, Large ([2]; 125 g ai/ha): 30
Plant response rating: Crabgrass, Large ([2]; 250 g ai/ha): 55
Plant response rating: Pigweed, Palmer ([3]; 16 g ai/ha): 6
Plant response rating: Pigweed, Palmer ([3]; 31 g ai/ha): 19
Plant response rating: Pigweed, Palmer ([3]; 62 g ai/ha): 43
Plant response rating: Pigweed, Palmer ([3]; 125 g ai/ha): 40
Plant response rating: Pigweed, Palmer ([3]; 250 g ai/ha): 68
Plant response rating: Waterhemp ([4]; 16 g ai/ha): 11
Plant response rating: Waterhemp ([4]; 31 g ai/ha): 45
Plant response rating: Waterhemp ([4]; 62 g ai/ha): 55
Plant response rating: Waterhemp ([4]; 125 g ai/ha): 65
Plant response rating: Waterhemp ([4]; 250 g ai/ha): 68

CN1C[C@H](c2ccc(F)c(F)c2)[C@@H](C(=O)Nc2ccccc2F)C1=O [Compound 596, (3S,4S)-4-(3,4-difluorophenyl)-N-(2-fluorophenyl)-1-methyl-2-oxo-3-pyrrolidinecarboxamide]
Plant response rating: Rice, Transplanted ([5]; 16 g ai/ha): 0
Plant response rating: Rice, Transplanted ([5]; 32 g ai/ha): 0
Plant response rating: Rice, Transplanted ([5]; 64 g ai/ha): 0
Plant response rating: Rice, Transplanted ([5]; 125 g ai/ha): 0
Plant response rating: Rice, Transplanted ([5]; 250 g ai/ha): 0
Plant response rating: Sprangletop, Brdd. ([6]; 16 g ai/ha): 0
Plant response rating: Sprangletop, Brdd. ([6]; 32 g ai/ha): 40
Plant response rating: Sprangletop, Brdd. ([6]; 64 g ai/ha): 85
Plant response rating: Sprangletop, Brdd. ([6]; 125 g ai/ha): 85
Plant response rating: Sprangletop, Brdd. ([6]; 250 g ai/ha): 95
Plant response rating: Barnyardgrass ([7]; 16 g ai/ha): 45
Plant response rating: Barnyardgrass ([7]; 32 g ai/ha): 65
Plant response rating: Barnyardgrass ([7]; 64 g ai/ha): 100
Plant response rating: Barnyardgrass ([7]; 125 g ai/ha): 100
Plant response rating: Barnyardgrass ([7]; 250 g ai/ha): 100
Plant response rating: Monochoria ([8]; 16 g ai/ha): 25
Plant response rating: Monochoria ([8]; 32 g ai/ha): 45
Plant response rating: Monochoria ([8]; 64 g ai/ha): 100
Plant response rating: Monochoria ([8]; 125 g ai/ha): 100
Plant response rating: Monochoria ([8]; 250 g ai/ha): 100
Plant response rating: Rice, Water Seeded ([9]; 16 g ai/ha): 0
Plant response rating: Rice, Water Seeded ([9]; 32 g ai/ha): 0
Plant response rating: Rice, Water Seed. ([9]; 64 g ai/ha): 10
Plant response rating: Rice, Water Seed. ([9]; 125 g ai/ha): 10
Plant response rating: Rice, Water Seeded ([9]; 250 g ai/ha): 15
Plant response rating: Watergrass, Late ([10]; 16 g ai/ha): 15
Plant response rating: Watergrass, Late ([10]; 32 g ai/ha): 40
Plant response rating: Watergrass, Late ([10]; 64 g ai/ha): 85
Plant response rating: Watergrass, Late ([10]; 125 g ai/ha): 100
Plant response rating: Watergrass, Late ([10]; 250 g ai/ha): 100
